Columns and labels:
[1] = test system: twin-bearing ewes; assay: Somatic cell count (SCC) in milk after arginine supplementation in mid-late gestation (Example 2); assay type: in vivo, sheep; details: for somatic cell count (SCC) lower than controls: trend P<0.15
Source text: FIG. 3 is a graph from a further study confirming the effect of arginine supplementation from 100 days gestation to birth in twin-bearing ewes on somatic cell count (SCC) in milk. Data was log transformed for analysis—back transformed values are presented.
In a second experiment ewes were supplemented with arginine during mid-late gestation that stopped at parturition.

[2] = test system: sheep; details: not in gestation, one off dose; cited from earlier work
[3] = test system: Twin-bearing, multiparous Romney ewes; assay: Milk free amino acid profiles by HPLC (Example 1); assay type: in vivo, sheep; details: saline-treated controls compared to L-arginine treated ewes
Source text: (§1) Twin-bearing, multiparous Romney ewes were housed in individual stalls and fed once daily, a lucerne-based pellet diet formulated to meet 100% of the NRC-recommended maintenance requirements for twin-bearing pregnant and lactating ewes throughout the trial.
(§2) From day 100 of pregnancy to parturition, ewes received either an injected bolus of L-arginine-mono-hydrochloride (L-arginine-HCL; Merck KGaA, Darmstadt, Germany; 345 μmol/kg body weight (BW)) or a control being approximately the same volume of sterile saline injected three times daily (0800, 1600, 2400 hrs).
Milk free amino acids (FAA) were analysed using High-Performance Liquid Chromatography (HPLC). Skim milk (500 μL) was mixed with 500-4, lithium extraction buffer (14 g/L lithium chloride, 3 g/L lithium hydroxide, 1 g/L phenol, 50 g/L sulfosalic acid) and placed on ice for 15 to 20 min. Volumes of 10-μL lithium hydroxide (5.88 M) were added to the sample to obtain a final pH of 1.5 to 2. This was followed by centrifugation at 13,680×g for 5 min at 4° C., and the resulting supernatant was filtered through a 4 mm 0.2 μm syringe filter. The filtered sample was analysed for FAA using a Shimadzu LC 10Ai HPLC, fitted with a high-efficiency lithium-ion exchange column (3 mm i.d.×150 mm) Injected volumes were 10 μL, the reagent flow rate was 0.3 mL/min, and the run was 162 min between injections, using lithium buffers as elutants and ninhydrin post column derivatization. Free amino acid values are reported as μmol per liter of milk. Differences between treatment groups were analysed using the MIXED procedure (SAS) with a linear model that included the fixed effects of dam, dam treatment group, and the covariates average dam live weight, average dam body condition score and days in lactation were included in the model.

[4] = test system: Twin-bearing, multiparous Romney ewes; assay: Milk composition (crude protein, somatic cell count, fat, lactose) and milk yield after L-arginine supplementation from day 100 of pregnancy to parturition (Example 1); assay type: in vivo, sheep
Source text: as §1, §2
At the first sign of labour induction, which was between 1 and 10 hours (h) prior to birth, L-arginine treatment ceased and ewes were allowed to lamb naturally. In total 25 ewes were used (arginine group, n=13; control group n=12).
Ewes were assigned to milking groups based on parturition date. Collection of a colostrum sample within the 12 h post partum could have compromised animal behaviour and ewe-lamb bond formation. Therefore, a range of 0.58-1.22 days in lactation was produced when the “colostrum” sample was collected. Ewes were then milked approximately at day 1, 4, 7, 10 and 14 of lactation, using the oxytocin method. At each milking, ewes were milked by machine followed by hand stripping, after an intravenous injection of 1 IU of synthetic oxytocin (Oxytocin V, 10 IU/mL). The time when the udder was empty was recorded. Animals were milked again (machine and hand-stripping) approximately 4 h later, with the time and weight of the milk recorded. Lambs were separated from the ewes and bottle-fed as required during the intervening period, using the milk collected from their respective dam. The same operators milked all ewes on each occasion in this study using a mobile milking machine. Milk obtained after the 4 h intervening period was subsampled for analysis of milk composition (% fat, % crude protein (CP), % lactose and somatic cell count). Milk samples were preserved with bronopol and refrigerated at 4° C. until analysis using a FT120-FTIR, calibrated for sheep milk. Two reference checks (fat and CP) were taken during lactation to account for changes in the matrix of the milk due to stage of lactation. Somatic cell counts were determined using a bromide based fluorescent dye and a FOSS flow Cytometer and values log transformed. Ewes were weighed and body condition scored (scale of 1 to 5) once a week.
Throughout milking, dams and offspring were housed in individual pens immediately adjacent to each other. Daily milk yield was calculated. Repeated measures analysis of milk yield and composition using the MIXED procedure with a linear model that included the fixed effects of dam, dam treatment group, and the covariates average dam live weight, average dam body condition score and days in lactation were included in the model. From the 25 ewes available only 18 were used for statistical analysis (arginine group n=8; control group n=10).

[5] = test system: non-gestational (and pre-ruminant) calves; details: cited from earlier work
[6] = Effect of i.v. bolus on plasma arginine concentration; assay type: in vivo, sheep
Procedure: FIG. 4 is a graph from the above study illustrating plasma arginine concentrations immediately prior to (−5 min) and 30, 60 and 180 minutes following an i.v. bolus of arginine or saline (controls) in twin-bearing ewes (n=9/group) at 120 days gestation.
FIG. 5 is a graph from the above study illustrating plasma arginine concentrations 1 hour following a bolus of arginine or saline (controls) and immediately prior to slaughter at day 140 gestation in twin-bearing ewes (n=6/group).
To determine the magnitude of the increase in circulating Arg concentrations following a single bolus (3 boluses were given each day), plasma samples collected from all ewes at day 120 of gestation at time −5 (immediately prior to bolus), 30, 60 and 180 minutes following the bolus (Arg or saline) were analysed for Arg concentration using reverse-phase high-performance liquid chromatography (Sales et al., 2012). Nine ewes per treatment group were randomly selected for analysis.

## Cl.N=C(N)NCCC[C@H](N)C(=O)O [L-arginine, L-arginine-mono-hydrochloride]
[1]; control compared to arginine-supplemented ewes, at each time-point and over time
  variation in SCC between animals: greater in the control
[1]; day 1 (colostrum) of lactation
  somatic cell count (SCC) lower than controls: 77%
[1]; day 7 of lactation
  somatic cell count (SCC) lower relative to controls: ~75%
[1]; day 10 of lactation
  somatic cell count (SCC) lower than controls: 53%
[1]; day 14 of lactation
  somatic cell count (SCC) lower relative to controls: ~75%
[1]; throughout the period of study, control ewes 787,000-2,594,000 cells/ml
  SCC in milk: 366,000-589,000 cells/ml
[2]
  plasma white blood cell levels: increase in white blood cell levels
[3]; day 7 post parturition
  absolute milk free concentration of histidine: significantly decreased in saline-treated controls
  absolute milk free concentration of phenyalanine: significantly decreased in saline-treated controls
  absolute milk free concentration of tryptophan: significantly decreased in saline-treated controls
  absolute milk free concentration of tyrosine: significantly decreased in saline-treated controls
[3]; day 14 post parturition
  milk free asparagine: significantly decreased
  milk free glutamate: trends for decreased
  milk free leucine: trends for decreased
  milk free tyrosine: trends for decreased
[4]; between day 1 and day 4 post parturition and administration stopping
  MSC count compared to control animals: significantly lower
[4]; day 4-14 of lactation, compared to saline-treated controls
  Milk somatic cell counts: decreased
[4]; ewes treated with L-arginine, untreated ewes higher than 500,000
  MSC counts: below 300,000
[4]; milk, day 1 of lactation, saline-treated controls compared to L-arginine treated ewes
  fat percentage: trend for increased fat percentage at day 1 in saline-treated controls
[4]; milk, day 4-7 of lactation, compared to saline-treated controls, 345 μmol/kg BW three times daily
  Crude protein percentage: increased
[4]; milk, day 14 of lactation, saline-treated controls compared to L-arginine-treated ewes
  crude milk protein percentage: trend for increased crude milk protein percentage was observed in saline-treated controls
[4]; milk, post parturition, versus saline-treated controls
  lactose percentage: No effect
[4]; post administration (administration day 100 to parturition)
  duration of protective response in terms of milk somatic cell count: at least 14 days
[4]; post parturition, versus saline-treated controls
  milk yield: No effect
[5]
  antibody production in plasma: reduction in antibody production
[6]; 30 minutes following single i.v. bolus, day 120 of gestation
  increase in circulating Arg concentrations: 4 fold
[6]; 1 hour following a bolus, immediately prior to slaughter at 140 days of gestation, P<0.0001
  plasma Arg relative to controls: 4.6 times higher than controls
[6]; after i.v. bolus, day 120 of gestation
  time for circulating concentrations of Arg to return to baseline: ≤ 3 h
[6]; until at least 60 minutes post-dosage, single i.v. bolus, day 120 of gestation
  elevated circulating Arg concentrations relative to control: 3 times the control
